Experimental data as given in EP0597838B1, “VACCINE COMPOSITIONS” (NORTH AMERICAN VACCINE, INC., priority 1990, dated 1991).
Counter-ions that a name gives are not always drawn.

Columns and labels:
[1] = C.L. Penney et al, Vaccine 4, 1986; cited from earlier work
[2] = system: HIV-1 polypeptide, residues 503-535; test: Antibody response to HIV-1 polypeptide 503-535 coupled to KLH in mice, radioimmunoassay of sera; assay type: in vivo, BALB/c mice; details: 100 µg polypeptide-KLH on day 1 and day 21
Method: 1) HIV Peptide Sequence The peptide sequence of the HIV was as follows. Product: BC-101 503- H-[…] 535 M.W. 3585.14 (Back-bone) 2) Experiments in mice BALB/c mice were immunized with 100 µg of chemically synthesized polypeptide, corresponding to the amino acid sequence of residues 503-535 of HIV-1, coupled to Keyhole Limpet Hemocyanin (KLH). Octadecyl tyrosine hydro-chloride, 10 µg-100 µg, was complexed with the polypeptide as described in Example 2. This mixture, in a total volume of 0.1 ml, was injected on day 1, and again on day 21. The mice were bled on days 7, 14, 21, 28 and 35. The antibody concentration in the sera was determined by radioimmunoassay. The antibody concentration was estimated by comparison with a standard curve obtained using a polyclonal antibody.

[3] = system: hepatitis B surface antigen; test: Antibody response to hepatitis B surface antigen with octadecyl amino acid immunoadjuvants, radioimmunoassay of sera; assay type: in vivo, BALB/c mice; details: 50 ng HBsAg i.m. day 1, boost 35 ng day 21, 100 µg octadecyl amino acid
Method: (§1) BALB/c mice were immunized with 50 ng of hepatitis B surface antigen in the presence of adjuvant for the non-control mice and in the absence of adjuvant for the control mice. The hepatitis B surface antigen was obtained from 3T3 cells transfected with the gene for the surface antigen. 100 µg of octadecyl amino acid was complexed with the polypeptide as described in Example 2. This mixture, in a total volume of 0.1 ml, was injected on day 1 using an intramuscular route, and the mice were bled on days 7, 14, 21, 28, 35, 42 and 61. The mice were boosted with 35 ng of the polypeptide on day 21.
(§2) The antibody concentration in the sera was determined by radioimmunoassay. The antibody concentration was estimated by comparison with a standard curve obtained using a monoclonal antibody.

[4] = system: hepatitis B surface antigen; test: Antibody response to hepatitis B surface antigen as a function of octadecyl tyrosine dose, radioimmunoassay of sera; assay type: in vivo, BALB/c mice; details: 80 ng HBsAg, boost 50 ng, pre-bleed value 11.5
Method: as §1, §2
The immunizations were carried out in the presence of adjuvant for the non-control mice and in the absence of adjuvant for the control mice.

[5] = system: hepatitis B surface antigen; test: Isotype of the anti-hepatitis B surface antigen antibody response, radioimmunoassay with tritium labelled anti-mouse isotype antibody; assay type: in vivo, mice; details: for IgE, radioactivity of bound isotype antibody / IgG1, radioactivity of bound isotype antibody / IgG2a, radioactivity of bound isotype antibody / IgG2b, radioactivity of bound isotype antibody / IgG3, radioactivity of bound isotype antibody / IgM, radioactivity of bound isotype antibody: immunization on day 1 and 21, 50 µg of octadecyl tyrosine
Method: The protocol was as described in Example 5, Section 2 (mice) except that 50 µg of octadecyl tyrosine was used for both the primary and secondary (day 21) immunizations. The isotype of the antibody response was determined by radioimmunoassay. Use was made of tritium labelled anti-mouse isotype antibody. Titration was undertaken by incubation of samples on plates coated with immunoaffinity purified hepatitis B surface antigen.

[6] = system: hepatitis B surface antigen; test: Antibody response to hepatitis B surface antigen as a function of octadecyl tyrosine dose, radioimmunoassay of sera; assay type: in vivo, BALB/c mice; details: day 21, 80 ng HBsAg, boost 50 ng, pre-bleed value 11.5

For `CCCCCCCCCCCCCCCCCCOC(=O)C(N)Cc1ccc(O)cc1` (centres unmarked) [Octadecyl Tyrosine, octadecyl tyrosine hydrochloride], the toxicity in animals [1] is given as “non-toxic”, the Anti-peptide antibody concentration ([2]; 10 µg adjuvant, day 7) is given as 1.61 µg/mL and the Anti-peptide antibody concentration ([2]; 10 µg adjuvant, day 14) is given as 3.15 µg/mL. It also gave an Anti-peptide antibody concentration ([2]; 10 µg adjuvant, day 21) of 1.49 µg/mL, an Anti-peptide antibody concentration ([2]; 10 µg adjuvant, day 28) of 85.9 µg/mL and an Anti-peptide antibody concentration ([2]; 10 µg adjuvant, day 35) of 131.9 µg/mL. The Anti-peptide antibody concentration ([2]; 50 µg adjuvant, day 7) was 1.18 µg/mL, the Anti-peptide antibody concentration ([2]; 50 µg adjuvant, day 14) was 0.75 µg/mL and the Anti-peptide antibody concentration ([2]; 50 µg adjuvant, day 21) was 2.99 µg/mL. It also gave an Anti-peptide antibody concentration ([2]; 50 µg adjuvant, day 28) of 54.2 µg/mL, an Anti-peptide antibody concentration ([2]; 50 µg adjuvant, day 35) of 86.2 µg/mL and an Anti-peptide antibody concentration ([2]; 100 µg adjuvant, day 7) of 0.87 µg/mL. It also gave an Anti-peptide antibody concentration ([2]; 100 µg adjuvant, day 14) of 1.65 µg/mL, an Anti-peptide antibody concentration ([2]; 100 µg adjuvant, day 21) of 2.04 µg/mL and an Anti-peptide antibody concentration ([2]; 100 µg adjuvant, day 28) of 155.3 µg/mL. For the same compound, the Anti-peptide antibody concentration ([2]; 100 µg adjuvant, day 35) was 138.0 µg/mL, the Anti-HBsAg antibody concentration ([3]; day 7) was 68 ng/mL and the Anti-HBsAg antibody concentration ([3]; day 14) was 91 ng/mL. For the same compound, the Anti-HBsAg antibody concentration ([3]; day 21) was 58 ng/mL, the Anti-HBsAg antibody concentration ([3]; day 28) was 355 ng/mL and the Anti-HBsAg antibody concentration ([3]; day 35) was 833 ng/mL. The Anti-HBsAg antibody concentration ([3]; day 61) was 752 ng/mL, the “Antibody response to hepatitis B surface antigen” value (from here on “Antibody response”) ([4]; 10 µg adjuvant, day 7) was 611 CPM and the “Antibody response” value ([4]; 10 µg adjuvant, day 14) was 2314 CPM. The “Antibody response” value ([4]; 10 µg adjuvant, day 28) was 8403 CPM, the “Antibody response” value ([4]; 10 µg adjuvant, day 35) was 10005 CPM and the “Antibody response” value ([4]; 50 µg adjuvant, day 7) was 2064 CPM. For the same compound, the “Antibody response” value ([4]; 50 µg adjuvant, day 14) was 846 CPM, the “Antibody response” value ([4]; 50 µg adjuvant, day 28) was 18804 CPM and the “Antibody response” value ([4]; 50 µg adjuvant, day 35) was 20616 CPM. The “Antibody response” value ([4]; 100 µg adjuvant, day 7) was 1107 CPM, the “Antibody response” value ([4]; 100 µg adjuvant, day 14) was 537 CPM and the “Antibody response” value ([4]; 100 µg adjuvant, day 28) was 19679 CPM. The “Antibody response” value ([4]; 100 µg adjuvant, day 35) was 13427 CPM, the “IgE, radioactivity of bound isotype antibody” value ([5]; day of bleed 14) was 33±10 cpm and the “IgG1, radioactivity of bound isotype antibody” value ([5]; day of bleed 14) was 568±32 cpm. For the same compound, the “IgG2a, radioactivity of bound isotype antibody” value ([5]; day of bleed 14) was 483±44 cpm, the “IgG2b, radioactivity of bound isotype antibody” value ([5]; day of bleed 14) was 290±31 cpm and the “IgG3, radioactivity of bound isotype antibody” value ([5]; day of bleed 14) was 144±19 cpm. The “IgM, radioactivity of bound isotype antibody” value ([5]; day of bleed 14) was 347±37 cpm, the “IgE, radioactivity of bound isotype antibody” value ([5]; day of bleed 35) was 55±33 cpm and the “IgG1, radioactivity of bound isotype antibody” value ([5]; day of bleed 35) was 8030±155 cpm. For the same compound, the “IgG2a, radioactivity of bound isotype antibody” value ([5]; day of bleed 35) was 12331±336 cpm, the “IgG2b, radioactivity of bound isotype antibody” value ([5]; day of bleed 35) was 4710±115 cpm and the “IgG3, radioactivity of bound isotype antibody” value ([5]; day of bleed 35) was 333±17 cpm. For the same compound, the “IgM, radioactivity of bound isotype antibody” value ([5]; day of bleed 35) was 826±8 cpm, the “IgE, radioactivity of bound isotype antibody” value ([5]; day of bleed 42) was 29±12 cpm and the “IgG1, radioactivity of bound isotype antibody” value ([5]; day of bleed 42) was 6176±496 cpm. For the same compound, the “IgG2a, radioactivity of bound isotype antibody” value ([5]; day of bleed 42) was 2271±215 cpm, the “IgG2b, radioactivity of bound isotype antibody” value ([5]; day of bleed 42) was 1109±77 cpm and the “IgG3, radioactivity of bound isotype antibody” value ([5]; day of bleed 42) was 165±24 cpm. The “IgM, radioactivity of bound isotype antibody” value ([5]; day of bleed 42) was 545±87 cpm, the “levels of IgE antibodies” value ([5]; in words, compared to the control without adjuvant) was “no significant increase” and the “Antibody response” value ([6]; 10 µg adjuvant) was 342 CPM. For the same compound, the “Antibody response” value ([6]; 50 µg adjuvant) was 4000 CPM and the “Antibody response” value ([6]; 100 µg adjuvant) was 1279 CPM.
